From patent US4446325A, “1,4-Dihydropyridine compounds” (priority 1981, dated 1984)

Experiments:
coronary artery = assay: Blood flow increasing activity in coronary artery of anesthetized dog (intravenous); format: in vivo; details: i.v.
Protocol: (§1) A dog was anesthetized with pentobarital sodium at a dose of 30 mg/kg (intravenous injection) and, under artificial respiration, the blood flow in the coronary, vertebral and femoral arteries was determined using an electromagnetic blood-flow meter. The blood pressure was also measured simultaneously. The test compound was dissolved in ethanol at a concentration of 1% by weight of the compound and then diluted to a volume of 10 times with a 80% aqueous solution of polyethylene glycol 400. The resulting solution was further diluted with a 0.9% physiological saline solution and administered intravenously into the femoral vein at a dose shown in Tables 1 and 2.

vertebral artery = assay: Blood flow increasing activity in vertebral artery of anesthetized dog (intravenous); format: in vivo; details: i.v.
Protocol: as §1

femoral artery = assay: Blood flow increasing activity in femoral artery of anesthetized dog (intravenous); format: in vivo; details: i.v.
Protocol: as §1

[1] = system: enucleated heart of guinea-pig; assay: Effect on heart systole, enucleated heart of guinea-pig (Langendorf method)
Protocol: (§2) The effects of the compounds of this invention on the heat systole and the perfusion volume in the coronary artery in enucleated heart of guinea-pig were determined in accordance with the Langendorf method.

[2] = system: coronary artery in enucleated heart of guinea-pig; assay: Effect on perfusion volume in coronary artery, enucleated heart of guinea-pig (Langendorf method)
Protocol: as §2

[3] = Stability to light (sun light, quartz dish, visual appearance); format: physicochemical; design: key to Change in appearance on light exposure: (-): No change
in vivo = details: mouse, oral, ddy male mice, mortality one week after administration
[4] = system: coronary, vertebral and femoral arteries; assay: Blood flow increasing / vasodilating activity in coronary, vertebral and femoral arteries (overall statements); format: in vivo, dog; details: Table 2
Protocol: as §1

blood pressure = assay: Blood pressure measured simultaneously with blood flow in anesthetized dog; format: in vivo; details: i.v.
Protocol: as §1

[5] = cited from earlier work
[6] = background statement; cited from earlier work
[7] = exposure for a total of 8 hours
[8] = 3 mg/kg, Table 2 (separate test)

Compound | Duration of Activity, Coronary Artery (coronary artery; 1 mg/kg, Table 1) | Total Increase in Blood Flow, Coronary Artery (coronary artery; 1 mg/kg, Table 1) | Duration of Activity, Coronary Artery (coronary artery; 3 mg/kg, Table 1) | Total Increase in Blood Flow, Coronary Artery (coronary artery; 3 mg/kg, Table 1) | Duration of Activity, Vertebral Artery (vertebral artery; 1 mg/kg, Table 1) | Total Increase in Blood Flow, Vertebral Artery (vertebral artery; 1 mg/kg, Table 1) | Duration of Activity, Vertebral Artery (vertebral artery; 3 mg/kg, Table 1) | Total Increase in Blood Flow, Vertebral Artery (vertebral artery; 3 mg/kg, Table 1) | Change in appearance on light exposure ([3]; 5 min. sun light) | Change in appearance on light exposure ([3]; 1 hour sun light) | Change in appearance on light exposure ([3]; 2 hours sun light) | Change in appearance on light exposure ([3]; 3 hours sun light) | changes on light exposure [3, 7] | Duration of Activity, Coronary Artery (coronary artery; [8]) | Total Increase in Blood Flow, Coronary Artery (coronary artery; [8]) | Duration of Activity, Vertebral Artery (vertebral artery; [8]) | Total Increase in Blood Flow, Vertebral Artery (vertebral artery; [8]) | Duration of Activity, Femoral Artery (femoral artery; [8]) | Total Increase in Blood Flow, Femoral Artery (femoral artery; [8]) | LD50 at 168 h (in vivo) | other results
COC(=O)C1=C(C)NC(C)=C(C(=O)OCC2(C)OCCO2)C1c1cccc([N+](=O)[O-])c1 (stereo not drawn) [Compound A, Methyl 2,2-ethylenedioxypropyl 2,6-dimethyl-4-(3-nitrophenyl)-1,4-dihydropyridine-3,5-dicarboxylate] | 5.5 | 22 mL | 17.5 | 164 mL | 11.7 | 64 mL | 27.3 | 288 mL | (-) | (-) | (-) | (-) | did not show any changes | – | – | – | – | – | – | – | Duration of Activity, Femoral Artery (femoral artery; 1 mg/kg, Table 1): 9.0; Total Increase in Blood Flow, Femoral Artery (femoral artery; 1 mg/kg, Table 1): 104 mL; Duration of Activity, Femoral Artery (femoral artery; 3 mg/kg, Table 1): 19.3; Total Increase in Blood Flow, Femoral Artery (femoral artery; 3 mg/kg, Table 1): 316 mL; Effects on Heart Systole: Duration of Effect ([1]; dose 1 × 10^-6 g): 4.6 min; Effects on Heart Systole: Duration of Effect ([1]; dose 1 × 10^-7 g): 1.3 min; Effects on Coronary Artery: Duration of Effect ([2]; dose 1 × 10^-6 g): 34.6 min; Effects on Coronary Artery: Total Perfusion Volume ([2]; dose 1 × 10^-6 g): 737.8 drops; Effects on Coronary Artery: Duration of Effect ([2]; dose 1 × 10^-7 g): 15.6 min; Effects on Coronary Artery: Total Perfusion Volume ([2]; dose 1 × 10^-7 g): 165.0 drops
COC(=O)C1=C(C)NC(C)=C(C(=O)OCC(C)=O)C1c1ccccc1[N+](=O)[O-] (stereo not drawn) [Compound B, Methyl 2-oxopropyl 2,6-dimethyl-4-(2-nitrophenyl)-1,4-dihydropyridine-3,5-dicarboxylate] | 10.0 | 37 mL | 35.0 | 392 mL | 7.5 | 29 mL | 35.5 | 309 mL | – | – | – | – | – | – | – | – | – | – | – | – | Duration of Activity, Femoral Artery (femoral artery; 1 mg/kg, Table 1): 4.0; Total Increase in Blood Flow, Femoral Artery (femoral artery; 1 mg/kg, Table 1): 20 mL; Duration of Activity, Femoral Artery (femoral artery; 3 mg/kg, Table 1): 58.5; Total Increase in Blood Flow, Femoral Artery (femoral artery; 3 mg/kg, Table 1): 774 mL
COC(=O)C1=C(C)NC(C)=C(C(=O)OCC2CC2)C1c1cccc([N+](=O)[O-])c1 (stereo not drawn) [Compound C, Cyclopropylmethyl methyl 2,6-dimethyl-4-(3-nitrophenyl)-1,4-dihydropyridine-3,5-dicarboxylate] | – | – | – | – | – | – | – | – | (-) | (-) | (-) | (-) | did not show any changes | 49 | 580 mL | 37 | 463 mL | 26 | 367 mL | 1450 mg/kg | Duration of Activity, Coronary Artery (coronary artery; 10 mg/kg, Table 2): 66; Total Increase in Blood Flow, Coronary Artery (coronary artery; 10 mg/kg, Table 2): 2772 mL; Duration of Activity, Vertebral Artery (vertebral artery; 10 mg/kg, Table 2): 78; Total Increase in Blood Flow, Vertebral Artery (vertebral artery; 10 mg/kg, Table 2): 1691 mL; Duration of Activity, Femoral Artery (femoral artery; 10 mg/kg, Table 2): 60; Total Increase in Blood Flow, Femoral Artery (femoral artery; 10 mg/kg, Table 2): 811 mL; Change in appearance on light exposure ([3]; 8 hours sun light): (-); duration of vasodilation effect compared with Compound F [4]: significantly higher; vasodilation effect compared with Compound F [4]: significantly higher
CCOC(=O)C1=C(C)NC(C)=C(C(=O)OCC2CC2)C1c1cccc([N+](=O)[O-])c1 (stereo not drawn) [Compound D, Cyclopropylmethyl ethyl 2,6-dimethyl-4-(3-nitrophenyl)-1,4-dihydropyridine-3,5-dicarboxylate] | – | – | – | – | – | – | – | – | (-) | (-) | (-) | (-) | did not show any changes | 32 | 308 mL | 17 | 212 mL | 16 | 173 mL | 2000 mg/kg | Change in appearance on light exposure ([3]; 8 hours sun light): (-)
CCCOC(=O)C1=C(C)NC(C)=C(C(=O)OCC2CC2)C1c1cccc([N+](=O)[O-])c1 (stereo not drawn) [Compound E, Cyclopropylmethyl propyl 2,6-dimethyl-4-(3-nitrophenyl)-1,4-dihydropyridine-3,5-dicarboxylate] | – | – | – | – | – | – | – | – | (-) | (-) | (-) | (-) | did not show any changes | 22 | 148 mL | 19 | 262 mL | 20 | 285 mL | 2000 mg/kg | Change in appearance on light exposure ([3]; 8 hours sun light): (-)
COC(=O)C1=C(C)NC(C)=C(C(=O)OCC(C)C)C1c1ccccc1[N+](=O)[O-] (stereo not drawn) [Compound F, Isobutyl methyl 2,6-dimethyl-4-(2-nitrophenyl)-1,4-dicarboxylate, reference compound] | – | – | – | – | – | – | – | – | – | – | – | – | – | 31 | 353 mL | 34 | 347 mL | 27 | 365 mL | 465 mg/kg | Duration of Activity, Coronary Artery (coronary artery; 10 mg/kg, Table 2): 55; Total Increase in Blood Flow, Coronary Artery (coronary artery; 10 mg/kg, Table 2): 863 mL; Duration of Activity, Femoral Artery (femoral artery; 10 mg/kg, Table 2): 58; Total Increase in Blood Flow, Femoral Artery (femoral artery; 10 mg/kg, Table 2): 874 mL; color changes on light exposure ([3]; 5 minutes' exposure): slight color changes; changes on light exposure ([3]; after more than 5 minutes' exposure ("thereafter")): marked changes
COC(=O)C1=C(C)NC(C)=C(C(=O)OC)C1c1ccccc1[N+](=O)[O-] [Compound H, Dimethyl 2,6-dimethyl-4-(2-nitrophenyl)-1,4-dihydropyridine-3,5-dicarboxylate, reference compound] | 3.9 | 30 mL | 9.3 | 107 mL | 8.0 | 66 mL | 16.0 | 190 mL | – | – | – | – | – | 11 | 146 mL | 15 | 131 mL | 12 | 119 mL | – | Duration of Activity, Coronary Artery (coronary artery; 10 mg/kg, Table 2): 40; Total Increase in Blood Flow, Coronary Artery (coronary artery; 10 mg/kg, Table 2): 536 mL; Duration of Activity, Vertebral Artery (vertebral artery; 10 mg/kg, Table 2): 46; Total Increase in Blood Flow, Vertebral Artery (vertebral artery; 10 mg/kg, Table 2): 640 mL; Duration of Activity, Femoral Artery (femoral artery; 1 mg/kg, Table 1): 6.0; Total Increase in Blood Flow, Femoral Artery (femoral artery; 1 mg/kg, Table 1): 34 mL; Duration of Activity, Femoral Artery (femoral artery; 3 mg/kg, Table 1): 21.5; Total Increase in Blood Flow, Femoral Artery (femoral artery; 3 mg/kg, Table 1): 618 mL; Duration of Activity, Femoral Artery (femoral artery; 10 mg/kg, Table 2): 54; Total Increase in Blood Flow, Femoral Artery (femoral artery; 10 mg/kg, Table 2): 825 mL; blood pressure lowering activity (blood pressure): found to have a blood pressure lowering activity; Effects on Heart Systole: Duration of Effect ([1]; dose 1 × 10^-6 g): 14.5 min; Effects on Heart Systole: Duration of Effect ([1]; dose 1 × 10^-7 g): 2.9 min; Effects on Coronary Artery: Duration of Effect ([2]; dose 1 × 10^-6 g): 21.3 min; Effects on Coronary Artery: Total Perfusion Volume ([2]; dose 1 × 10^-6 g): 192.8 drops; Effects on Coronary Artery: Duration of Effect ([2]; dose 1 × 10^-7 g): 17.2 min; Effects on Coronary Artery: Total Perfusion Volume ([2]; dose 1 × 10^-7 g): 91.2 drops; duration of vasodilating activity ([5]; background statement): still unsatisfactory; side-effects [6]: still unsatisfactory
CCOC(=O)C1=C(C)NC(C)=C(C(=O)OC2CCCCC2)C1c1cccc([N+](=O)[O-])c1 (stereo not drawn) [cyclohexyl ethyl 2,6-dimethyl-4-(3-nitrophenyl)-1,4-dihydropyridine-3,5-dicarboxylate] | – | – | – | – | – | – | – | – | – | – | – | – | – | – | – | – | – | – | – | – | activities, reported ([5]; German OLS Nos. 2,117,571 and 2,117,573): weak activities
